Source: US20130065883A1 (Centro Nacional de Investigaceiones Oncologicas (CNIO), priority 2010, published 2013)
Where two headings read alike, the source gives them in different places.

What was measured:
PIM-3 = biological target: T1, PIM-3 (Homo sapiens, UniProt Q86V86); experiment: PIM-3 biochemical assay (ADP Hunter); conditions: read-out: PIM3 IC50;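 note: kinase activity read out as the quantity of ADP generated by the enzyme reaction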
T1 construct: purchased Millipore 14-738

FLT3 = biological target: T2, FLT3 (Homo sapiens, UniProt P36888); experiment: FLT3 biochemical assay (ADP Hunter);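 note: FLT3 enzymatic activity quantified through the ADP produced by the kinase reaction, detected with an ADP Hunter readout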
T2 sequence (P36888 27-993): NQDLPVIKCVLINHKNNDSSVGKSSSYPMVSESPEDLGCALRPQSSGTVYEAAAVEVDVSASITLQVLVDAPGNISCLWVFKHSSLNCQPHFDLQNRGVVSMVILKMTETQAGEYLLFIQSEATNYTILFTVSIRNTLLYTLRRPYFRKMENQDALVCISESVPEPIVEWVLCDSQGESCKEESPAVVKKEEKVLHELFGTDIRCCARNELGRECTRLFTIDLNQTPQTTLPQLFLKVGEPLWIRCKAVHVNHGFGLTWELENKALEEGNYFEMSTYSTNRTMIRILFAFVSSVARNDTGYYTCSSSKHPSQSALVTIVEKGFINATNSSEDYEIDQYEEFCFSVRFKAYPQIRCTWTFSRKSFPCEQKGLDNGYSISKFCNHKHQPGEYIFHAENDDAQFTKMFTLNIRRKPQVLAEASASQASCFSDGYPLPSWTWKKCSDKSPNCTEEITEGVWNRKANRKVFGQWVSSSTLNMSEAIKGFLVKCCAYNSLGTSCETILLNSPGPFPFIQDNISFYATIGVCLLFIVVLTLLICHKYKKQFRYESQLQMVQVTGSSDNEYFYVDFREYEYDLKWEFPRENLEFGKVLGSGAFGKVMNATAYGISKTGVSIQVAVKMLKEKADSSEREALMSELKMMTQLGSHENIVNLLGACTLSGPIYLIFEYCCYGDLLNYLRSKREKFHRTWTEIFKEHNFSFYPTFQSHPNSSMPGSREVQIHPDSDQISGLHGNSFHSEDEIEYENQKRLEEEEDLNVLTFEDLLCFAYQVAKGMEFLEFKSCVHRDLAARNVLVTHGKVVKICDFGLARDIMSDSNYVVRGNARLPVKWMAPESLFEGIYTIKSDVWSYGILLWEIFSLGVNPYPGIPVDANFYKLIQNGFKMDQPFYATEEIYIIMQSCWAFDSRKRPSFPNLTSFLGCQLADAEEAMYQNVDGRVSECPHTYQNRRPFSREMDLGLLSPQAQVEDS

PIM-1 = biological target: T3, PIM-1 (Homo sapiens, UniProt P11309); experiment: PIM-1 biochemical assay (ADP Hunter); conditions: read-out: PIM1 IC50;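 note: recombinant human PIM-1 carrying a C-terminal His tag, kinase activity quantified via ADP formed as the direct enzymatic product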
T3 construct: histidine tag (C); made in house
T3 sequence (P11309 whole entry): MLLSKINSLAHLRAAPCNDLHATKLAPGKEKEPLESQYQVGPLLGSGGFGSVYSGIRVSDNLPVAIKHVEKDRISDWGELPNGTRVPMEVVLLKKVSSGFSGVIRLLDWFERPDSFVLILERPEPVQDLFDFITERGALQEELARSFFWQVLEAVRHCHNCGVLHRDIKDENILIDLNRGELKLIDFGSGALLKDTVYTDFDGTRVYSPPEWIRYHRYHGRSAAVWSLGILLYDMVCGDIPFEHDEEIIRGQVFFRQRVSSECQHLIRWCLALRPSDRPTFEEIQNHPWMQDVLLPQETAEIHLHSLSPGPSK

PIM-2 = biological target: T4, PIM-2 (Homo sapiens, UniProt Q9P1W9); experiment: PIM-2 biochemical assay (ADP Hunter); conditions: semi-quantitative class; read-out: PIM2 IC50;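 note: recombinant N-terminally His-tagged human enzyme, kinase activity quantified by detection of ADP formed as the direct reaction product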
T4 construct: histidine tag (N); made in house
T4 sequence (Q9P1W9 whole entry): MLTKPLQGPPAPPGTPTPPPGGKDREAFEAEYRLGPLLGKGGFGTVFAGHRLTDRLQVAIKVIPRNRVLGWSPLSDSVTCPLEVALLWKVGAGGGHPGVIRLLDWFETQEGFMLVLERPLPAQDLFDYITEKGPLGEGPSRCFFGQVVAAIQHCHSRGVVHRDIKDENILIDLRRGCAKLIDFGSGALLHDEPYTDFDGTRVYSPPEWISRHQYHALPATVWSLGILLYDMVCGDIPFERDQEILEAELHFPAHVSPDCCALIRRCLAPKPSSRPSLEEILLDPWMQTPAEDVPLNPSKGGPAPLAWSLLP

tumor cell lines = experiment: Combination assay (MTT in vitro cell proliferation, combination index); type: cell-based; conditions: for EC50: read-out: Chemo EC50
[1] = Metabolic stability assay; type: in vitro ADME; conditions: percentage metabolic stability in human liver microsomes
Protocol: The metabolic stability assay was performed in Wuxi. 1 μM, 15 min. The kinase selectivity testing was performed in ProQinase GmbH, Germany.

[2] = actual IC50 value in parentheses
[3] = Homo sapiens, JeKo-1, Jeko-1, Mantle cell lymphoma, chemotherapeutic alone
[4] = Homo sapiens, MIA PaCa-2, MiaPaca-2, pancreas, chemotherapeutic alone
[5] = Homo sapiens, MV4-11, MV4:11, leukemia (AML), chemotherapeutic alone
[6] = Homo sapiens, SK-MEL19, SKMel19, melanoma, chemotherapeutic alone
[7] = Jeko-1, combined with lapatinib
[8] = SKMel19, combined with GDC-0879

Compound | IC50 (PIM-3; semi-quantitative class) [nM] | IC50 (FLT3; semi-quantitative class) [nM] | IC50 (PIM-1; [2]) [nM] | IC50 (PIM-1; semi-quantitative class) [nM] | IC50 (PIM-2) [nM] | further results
FC(F)(F)Oc1cccc(-n2nnc3ccc(N4CCC5(CC4)CNCCO5)nc32)c1 [2-61] | > 1000 | > 1000 | 74 | < 100 | > 1000 | –
FC(F)(F)Oc1cccc(-n2nnc3ccc(N4CCOC5(CCNCC5)C4)nc32)c1 [2-58] | > 1000 | > 1000 | 85 | < 100 | > 1000 | –
CS(=O)(=O)CCNCc1ccc(-c2ccc3ncnc(Nc4ccc(OCc5cccc(F)c5)c(Cl)c4)c3c2)o1 [lapatinib, N-(3-chloro-4-(3-fluorobenzyloxy)phenyl)-6-(5-((2-(methylsulfonyl)ethylamino)-methyl)furan-2-yl)quinazolin-4-amine, reference compound] | – | – | – | – | – | EC50 (tumor cell lines; HTC116, colon carcinoma, chemotherapeutic alone): 10000 nM; EC50 (tumor cell lines; [3]): 5000 nM; EC50 (tumor cell lines; [4]): 20000 nM; EC50 (tumor cell lines; [5]): 5000 nM; EC50 (tumor cell lines; Homo sapiens, NCI-H23, NCIH23, non small cell lung carcinoma, chemotherapeutic alone): 10000 nM
CS(=O)(=O)N1CCN(Cc2cc3nc(-c4cccc5[nH]ncc45)nc(N4CCOCC4)c3s2)CC1 [GDC-0941, reference compound] | – | – | – | – | – | EC50 (tumor cell lines; Homo sapiens, A549, A549, lung adenocarcinoma, chemotherapeutic alone): 6000 nM; EC50 (tumor cell lines; [3]): 1000 nM; EC50 (tumor cell lines; [5]): 500 nM; EC50 (tumor cell lines; Homo sapiens, NCI-H1975, NCIH1975, non small cell lung carcinoma, chemotherapeutic alone): 20000 nM; EC50 (tumor cell lines; [6]): 500 nM; EC50 (tumor cell lines; PC3, prostate cancer, chemotherapeutic alone): 10000 nM
Oc1ccc(-n2nnc3ccc(NCC4CCNCC4)nc32)cc1 [2-32] | < 100 | 100 to 1000 | 11 | < 100 | > 1000 | IC50 (PIM-3; [2]): 15 nM
FC(F)(F)Oc1cccc(-n2nnc3ccc(NCC4CCN(Cc5ccncc5)CC4)nc32)c1 [2-25] | < 100 | > 1000 | 34 | < 100 | > 1000 | IC50 (PIM-3; [2]): 22 nM; Combination Index (CI) (tumor cell lines; [7]): 0.387; Synergy (tumor cell lines; [7]): ++ (0.3 < CI < 0.7 (++)); Combination Index (CI) (tumor cell lines; MV4:11, combined with GDC-0941): 0.311; Synergy (tumor cell lines; MV4:11, combined with GDC-0941): ++ (0.3 < CI < 0.7 (++)); Combination Index (CI) (tumor cell lines; [8]): 0.87; Synergy (tumor cell lines; [8]): + (0.7 < CI < 1.2 (+))
OCCn1cc(-c2ccc3c(c2)CC/C3=N\O)c(-c2ccncc2)n1 [GDC-0879, reference compound] | – | – | – | – | – | EC50 (tumor cell lines; [6]): 300 nM
O[C@H]1CC[C@@H](Nc2ccc3nnn(-c4cccc(OC(F)(F)F)c4)c3n2)CC1 [2-68] | – | – | – | – | – | Synergy (tumor cell lines; [7]): ++ (0.3 < CI < 0.7 (++)); Synergy (tumor cell lines; MV4:11, combined with GDC-0941): ++ (0.3 < CI < 0.7 (++))
O[C@H]1CC[C@@H](CNc2ccc3nnn(-c4cccc(OC(F)(F)F)c4)c3n2)CC1 [2-57] | 100 to 1000 | > 1000 | – | < 100 | > 1000 | –
O=C(NOC[C@H](O)CO)c1ccc(F)c(F)c1Nc1ccc(I)cc1F [PD-0325901, (R)—N-(2,3-dihydroxypropoxy)-3,4-difluoro-2-(2-fluoro-4-iodophenylamino)benz-amide, reference compound] | – | – | – | – | – | EC50 (tumor cell lines): 1250 nM
CN1CCC(CNc2ccc3nnn(-c4cccc(OC(F)(F)F)c4)c3n2)CC1 [2-19, (1-Methyl-piperidin-4-ylmethyl)-[3-(3-trifluoromethoxy-phenyl)-3H-[1,2,3]triazolo[4,5-b]pyridin-5-yl]-amine] | 100 to 1000 | > 1000 | – | – | > 1000 | –
FC(F)(F)Oc1cccc(-n2nnc3ccc(N4CC5(CCNCC5)C4)nc32)c1 [2-49] | 100 to 1000 | > 1000 | – | – | 100 to 1000 | Synergy (tumor cell lines; NCIH23, combined with lapatinib): + (0.7 < CI < 1.2 (+))
FC(F)(F)Oc1cccc(-n2nnc3ccc(NCC4CCNCC4)nc32)c1 [2-21] | – | – | – | – | – | Stability in HLM [1]: 97.95%
CS(=O)(=O)N1CCC(Nc2ccc3nnn(-c4cccc(OC(F)(F)F)c4)c3n2)CC1 [2-56] | > 1000 | > 1000 | 79 | < 100 | 100 to 1000 | –
Nc1ccn([C@@H]2O[C@H](CO)[C@@H](O)C2(F)F)c(=O)n1 [Gemcitabine, 4-amino-1-[3,3-difluoro-4-hydroxy-5-(hydroxymethyl)tetrahydrofuran-2-yl]-1H-pyrimidin-2-one, reference compound] | – | – | – | – | – | EC50 (tumor cell lines; [4]): 50 nM
FC(F)(F)Oc1cccc(-n2nnc3ccc(N4CCCC5(CCNCC5)C4)nc32)c1 [2-59] | 100 to 1000 | > 1000 | – | < 100 | > 1000 | –
CN1CCC(CNc2nc3c(cc2Cl)nnn3-c2cccc(OC(F)(F)F)c2)CC1 [2-55, [6-chloro-3-(3-trifluoromethoxy-phenyl)-3H-[1,2,3]triazolo[4,5-b]pyridin-5-yl]-(1-methyl-piperidin-4-ylmethyl)-amine] | > 1000 | 100 to 1000 | 90 | < 100 | > 1000 | Combination Index (CI) (tumor cell lines; [7]): 0.15; Synergy (tumor cell lines; [7]): +++ (0.1 < CI < 0.3 (+++)); Combination Index (CI) (tumor cell lines; MV4:11, combined with GDC-0941): 0.35; Synergy (tumor cell lines; MV4:11, combined with GDC-0941): ++ (0.3 < CI < 0.7 (++))
FC(F)(F)Oc1cccc(-n2nnc3ccc(N4CCC5(CCNCC5)C4)nc32)c1 [2-62] | 100 to 1000 | > 1000 | – | – | > 1000 | –

Further lines, with some results ahead:

IC50 (PIM-3; semi-quantitative class) [nM] | IC50 (FLT3; semi-quantitative class) [nM] | IC50 (PIM-1; [2]) [nM] | IC50 (PIM-1; semi-quantitative class) [nM] | IC50 (PIM-2) [nM] | Compound | further results
< 100 | > 1000 | 9 | < 100 | > 1000 | COc1cc(NCC2CC3(CCNCC3)C2)nc2c1nnn2-c1cccc(N(C)C)c1 [2-94] | IC50 (PIM-3; [2]): 56 nM
< 100 | > 1000 | 32 | < 100 | > 1000 | COc1cc(NC2CC3(CCNCC3)C2)nc2c1nnn2-c1cccc(N(C)C)c1 [2-96] | IC50 (PIM-3; [2]): 68 nM
100 to 1000 | > 1000 | – | 100 to 1000 | > 1000 | CS(=O)(=O)NC1CCN(c2ccc3nnn(-c4cccc(OC(F)(F)F)c4)c3n2)CC1 [2-80] | –
< 100 | < 100 | – | < 100 | > 1000 | FC(F)(F)Oc1cccc(-n2nnc3cc(Cl)c(N4CCCC5(CCCN5)CC4)nc32)c1 (stereo not shown) [2-78] | IC50 (PIM-3; [2]): 56 nM; IC50 (FLT3; [2]): 20 nM
< 100 | 100 to 1000 | 33 | < 100 | > 1000 | FC(F)(F)Oc1cccc(-n2nnc3cc(Cl)c(NC4CC5(CCNCC5)C4)nc32)c1 [2-79] | IC50 (PIM-3; [2]): 40 nM
< 100 | < 100 | 11 | < 100 | 100 to 1000 | FC(F)(F)Oc1cccc(-n2nnc3cc(Br)c(NCC4CCNCC4)nc32)c1 [2-89] | IC50 (PIM-3; [2]): 8 nM; IC50 (FLT3; [2]): 58 nM
100 to 1000 | > 1000 | – | – | > 1000 | FC(F)(F)Oc1cccc(-n2nnc3ccc(N4CCNCC4)nc32)c1 [2-69] | –
100 to 1000 | > 1000 | – | 100 to 1000 | 100 to 1000 | OC1CCN(c2ccc3nnn(-c4cccc(OC(F)(F)F)c4)c3n2)CC1 [2-70] | –
100 to 1000 | 100 to 1000 | 71 | < 100 | > 1000 | FC(F)(F)c1cccc(-n2nnc3ccc(N4CCCC5(CCCN5)CC4)nc32)c1 (stereo not shown) [2-81] | –
